{"source": "paper PMC7984292", "about": "(Chemmedchem, 2020)", "origin": "cited, not measured here", "key": {"hDAT": {"target": "hDAT (Homo sapiens, UniProt Q01959)", "sequence (Q01959 whole entry)": "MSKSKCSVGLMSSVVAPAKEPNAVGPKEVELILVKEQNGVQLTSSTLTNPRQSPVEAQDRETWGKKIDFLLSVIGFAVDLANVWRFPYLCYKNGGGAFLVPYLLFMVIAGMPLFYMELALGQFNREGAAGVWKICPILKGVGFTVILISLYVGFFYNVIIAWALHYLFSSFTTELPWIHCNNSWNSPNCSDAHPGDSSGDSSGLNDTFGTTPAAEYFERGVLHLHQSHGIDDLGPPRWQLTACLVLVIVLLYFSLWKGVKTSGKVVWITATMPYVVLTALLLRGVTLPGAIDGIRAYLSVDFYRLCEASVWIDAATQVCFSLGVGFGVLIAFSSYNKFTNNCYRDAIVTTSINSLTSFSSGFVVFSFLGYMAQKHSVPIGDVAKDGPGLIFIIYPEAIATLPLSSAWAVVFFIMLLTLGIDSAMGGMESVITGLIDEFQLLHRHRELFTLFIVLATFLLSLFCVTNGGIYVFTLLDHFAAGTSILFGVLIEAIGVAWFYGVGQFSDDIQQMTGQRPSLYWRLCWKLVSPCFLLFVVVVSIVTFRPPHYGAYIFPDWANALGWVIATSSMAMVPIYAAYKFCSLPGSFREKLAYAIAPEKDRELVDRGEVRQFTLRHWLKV", "details": "read-out: IC50 hDAT; oxo isomers; taken from reference"}, "[1]": {"assay": "not given", "remark": "listed apart in the source"}}, "note": "Where “and” joins values, the source holds several entries; their conditions need not be identical. Equal values may be shown once.", "data": [{"smiles": "O=C(O)CN(CCN(CC(=O)O)Cc1ccccc1O)Cc1ccccc1O", "note": "[HBED]", "values": [{"measurement": "log K GaL (stability constant for the Ga3+ complex)", "value": 38.51}]}, {"smiles": "CN1[C@H]2CC[C@@H]1[C@@H](CN(CC[S-])CC[N-]CC[S-])[C@@H](c1ccc(Cl)cc1)C2.[O]=[99Tc+4]", "note": "[TRODAT‐1 6]", "values": [{"measurement": "IC50", "setting": "hDAT", "value": "8.42 nM and 13.9 nM"}, {"measurement": "log P", "setting": "[1]; value in parentheses = log P, literature value", "value": "(0.29±0.04) ^[29]"}]}, {"smiles": "COC(=O)[C@H]1[C@@H](OC(=O)c2ccccc2)C[C@@H]2CC[C@H]1N2C", "note": "[cocaine 1, cocaine]", "values": [{"measurement": "log D 7.4", "setting": "[1]; pH 7.4", "value": "1.31±0.01 ^[22]"}]}]}
